Test results taken from patent US11319299B2, “Substituted carboxamides as inhibitors of WDR5 protein-protein binding” (PROPELLON THERAPEUTICS INC., priority 2016, dated 2022).

molecular target: WDR5 (Homo sapiens (Human), UniProt P61964); assay: Surface Plasmon Resonance (SPR) assay, KD and residence time; type: binding; conditions: surface plasmon resonance (SPR) assay; read-out: WDR5 binding affinity (KD)
Protocol: (i) Surface Plasmon Resonance (SPR) Assay
The lifetime of a drug on its target is determined by two rate constants: the association rate constant (kon) and the dissociation rate constant (koff). In principle, the lifetime of the binary drug—target complex is thus extended by a rapid rate of drug binding and/or a slow rate of drug—target complex dissociation. The in vivo lifetime of a drug-target complex is most critically dependent on the value of the koff [Nat. Rev. Drug Discov. […] Drug Discov. […] Drug-target residence time is defined as the reciprocal of koff (τ=1/koff), making the residence time a parameter that is easily measured by routine in vitro assay methods.

Question: `CC1CN(c2cc(F)c(-c3ccc(N(C)C)nc3)cc2NC(=O)c2c[nH]c(=O)cc2C(F)(F)F)CCN1C` (stereo in doubt) [Example 219, N-[5-[6-(dimethylamino)pyridin-3-yl]-4-fluoro-2-[(3R)-3,4-dimethylpiperazin-1-yl]phenyl]-6-oxo-4-(trifluoromethyl)-1H-pyridine-3-carboxamide] was tested. Which Kd did it give?
Answer: 1.4 nM

Question: For `CC1CN(c2cc(F)c(-c3cnc(N4CCOCC4)nc3)cc2NC(=O)c2ccc(F)cc2Cl)CCN1C` (stereo in doubt) [Example 230, 2-chloro-4-fluoro-N-[4-fluoro-5-(2-morpholin-4-ylpyrimidin-5-yl)-2-[(3R)-3,4-dimethylpiperazin-1-yl]phenyl]benzamide], which Kd is on record?
Answer: 8.95 nM

Question: Which Kd does the source give for `CC1CN(c2cc(F)c(-c3ccc(N4CCOCC4)nc3)cc2NC(=O)c2c[nH]c(=O)cc2C(F)(F)F)CCN1C` (stereo in doubt) [Example 239, N-[4-fluoro-5-(6-morpholin-4-ylpyridin-3-yl)-2-[(3R)-3,4-dimethylpiperazin-1-yl]phenyl]-6-oxo-4-(trifluoromethyl)-1H-pyridine-3-carboxamide] here?
Answer: 1.07 nM

Question: For `CC(C)Oc1ncc(-c2cc(NC(=O)c3c[nH]c(=O)cc3C(F)(F)F)c(N3CCN(C)C(C)C3)cc2F)cn1` (stereo in doubt) [Example 240, N-[4-fluoro-5-(2-propan-2-yloxypyrimidin-5-yl)-2-[(3R)-3,4-dimethylpiperazin-1-yl]phenyl]-6-oxo-4-(trifluoromethyl)-1H-pyridine-3-carboxamide], which Kd is on record?
Answer: 2.23 nM

Question: How did the Kd turn out when `CC1CN(c2cc(F)c(-c3cnc4c(c3)OCCO4)cc2NC(=O)c2c[nH]c(=O)cc2C(F)(F)F)CCN1C` (stereo in doubt) [Example 241, N-[5-(2,3-dihydro-[1,4]dioxino[2,3-b]pyridin-7-yl)-4-fluoro-2-[(3R)-3,4-dimethylpiperazin-1-yl]phenyl]-6-oxo-4-(trifluoromethyl)-1H-pyridine-3-carboxamide] was run?
Answer: 2.82 nM

Question: With `CC1CN(c2cc(F)c(-c3cnc(N4CCOCC4)nc3)cc2NC(=O)c2cn(C)nc2C(F)(F)F)CCN1C` (stereo in doubt) [Example 284, N-[4-fluoro-5-(2-morpholin-4-ylpyrimidin-5-yl)-2-[(3R)-3,4-dimethylpiperazin-1-yl]phenyl]-1-methyl-3-(trifluoromethyl)pyrazole-4-carboxamide] as the compound, how does the Kd read?
Answer: 8.13 nM

Question: For `CC1CN(c2cc(F)c(-c3cnc(N4CCOCC4)nc3)cc2NC(=O)c2ccc(F)cc2C(F)(F)F)CCN1C` (stereo in doubt) [Example 298, 4-fluoro-N-[4-fluoro-5-(2-morpholin-4-ylpyrimidin-5-yl)-2-[(3R)-3,4-dimethylpiperazin-1-yl]phenyl]-2-(trifluoromethyl)benzamide], which Kd is on record?
Answer: 4.22 nM

Question: With `CC1CN(c2cc(F)c(-c3cnc(N4CCOCC4)nc3)cc2NC(=O)c2ccc(F)cc2C(F)(F)F)CCN1C` (stereo in doubt) [Example 299, 4-fluoro-N-[4-fluoro-5-(2-morpholin-4-ylpyrimidin-5-yl)-2-[(3R)-3,4-dimethylpiperazin-1-yl]phenyl]-2-(trifluoromethyl)benzamide] as the compound, how does the Kd read?
Answer: 0.569 nM

Question: With `CC1CN(c2cc(F)c(-c3ccc(N4CCN(C)CC4)nc3)cc2NC(=O)c2cn(C)c(=O)cc2C(F)(F)F)CCN1C` (stereo in doubt) [Example 301, N-[4-fluoro-5-[6-(4-methylpiperazin-1-yl)pyridin-3-yl]-2-[(3R)-3,4-dimethylpiperazin-1-yl]phenyl]-1-methyl-6-oxo-4-(trifluoromethyl)pyridine-3-carboxamide] as the compound, how does the Kd read?
Answer: 5.26 nM

Question: `CC1CN(c2cc(F)c(-c3ccc(N4CCN(C)CC4)cc3)cc2NC(=O)c2cn(C)c(=O)cc2C(F)(F)F)CCN1C` (stereo in doubt) [Example 302, N-[4-fluoro-5-[4-(4-methylpiperazin-1-yl)phenyl]-2-[(3R)-3,4-dimethylpiperazin-1-yl]phenyl]-1-methyl-6-oxo-4-(trifluoromethyl)pyridine-3-carboxamide] was tested. Which Kd did it give?
Answer: 5.37 nM

Question: `CC1CN(c2cc(F)c(-c3cnc(N4CCN(C)CC4)nc3)cc2NC(=O)c2ccc(F)cc2C(F)(F)F)CCN1C` (stereo in doubt) [Example 316, 4-fluoro-N-[4-fluoro-5-[2-(4-methylpiperazin-1-yl)pyrimidin-5-yl]-2-[(3R)-3,4-dimethylpiperazin-1-yl]phenyl]-2-(trifluoromethyl)benzamide] was tested. Which Kd did it give?
Answer: 0.989 nM

Question: `CC1CN(c2cc(F)c(-c3cnc(N4CC(C)(C)OC(C)(C)C4)nc3)cc2NC(=O)c2c[nH]c(=O)cc2C(F)(F)F)CCN1C` (stereo in doubt) [Example 319, N-[4-fluoro-2-[(3R)-3,4-dimethylpiperazin-1-yl]-5-[2-(2,2,6,6-tetramethylmorpholin-4-yl)pyrimidin-5-yl]phenyl]-6-oxo-4-(trifluoromethyl)-1H-pyridine-3-carboxamide] was tested. Which Kd did it give?
Answer: 1.61 nM

Question: For `CC1CN(c2cc(F)c(-c3ccc(N4CCOCC4)nc3)cc2NC(=O)c2c[nH]c(=O)cc2C(F)F)CCN1C` (stereo in doubt) [Example 331, 4-(difluoromethyl)-N-[4-fluoro-5-(6-morpholin-4-ylpyridin-3-yl)-2-[(3R)-3,4-dimethylpiperazin-1-yl]phenyl]-6-oxo-1H-pyridine-3-carboxamide], which Kd is on record?
Answer: 2.01 nM

Question: `C[C@@H]1CN(c2cc(F)c(-c3cnc(N4CCOC[C@H]4C)nc3)cc2NC(=O)c2c[nH]c(=O)cc2C(F)(F)F)CCN1C` (stereo in doubt) [Example 337, N-[4-fluoro-2-[(3R)-3,4-dimethylpiperazin-1-yl]-5-[2-[(3R)-3-methylmorpholin-4-yl]pyrimidin-5-yl]phenyl]-6-oxo-4-(trifluoromethyl)-1H-pyridine-3-carboxamide] was tested. Which Kd did it give?
Answer: 1.16 nM

Question: `CC1COCCN1c1ncc(-c2cc(NC(=O)c3c[nH]c(=O)cc3C(F)(F)F)c(N3C[C@@H](C)N(C)[C@@H](C)C3)cc2F)cn1` (stereo in doubt) [Example 338, N-[4-fluoro-5-[2-[(3R)-3-methylmorpholin-4-yl]pyrimidin-5-yl]-2-[(3S,5R)-3,4,5-trimethylpiperazin-1-yl]phenyl]-6-oxo-4-(trifluoromethyl)-1H-pyridine-3-carboxamide] was tested. Which Kd did it give?
Answer: 2.08 nM

Question: For `CC(C)[C@@H]1CN(c2ncc(-c3cc(NC(=O)c4c[nH]c(=O)cc4C(F)(F)F)c(N4CCN(C)[C@H](C)C4)cc3F)cn2)CCO1` (stereo in doubt) [Example 347, N-[4-fluoro-2-[(3R)-3,4-dimethylpiperazin-1-yl]-5-[2-[(2R)-2-propan-2-ylmorpholin-4-yl]pyrimidin-5-yl]phenyl]-6-oxo-4-(trifluoromethyl)-1H-pyridine-3-carboxamide], which Kd is on record?
Answer: 0.606 nM

Question: With `CC1CN(c2cc(F)c(-c3cnc(N4CCOC(C)(C)C4)nc3)cc2NC(=O)c2c[nH]c(=O)cc2C(F)(F)F)CCN1C` (stereo in doubt) [Example 349, N-[5-[2-(2,2-dimethylmorpholin-4-yl)pyrimidin-5-yl]-4-fluoro-2-[(3R)-3,4-dimethylpiperazin-1-yl]phenyl]-6-oxo-4-(trifluoromethyl)-1H-pyridine-3-carboxamide] as the compound, how does the Kd read?
Answer: 2.35 nM

Question: `C[C@@H]1CN(c2ncc(-c3cc(NC(=O)c4c[nH]c(=O)cc4C(F)(F)F)c(N4C[C@@H](C)N(C)[C@H](C)C4)cc3F)cn2)C[C@H](C)O1` (stereo in doubt) [Example 356, N-[4-fluoro-5-[2-[(2R,6S)-2,6-dimethylmorpholin-4-yl]pyrimidin-5-yl]-2-[(3R,5R)-3,4,5-trimethylpiperazin-1-yl]phenyl]-6-oxo-4-(trifluoromethyl)-1H-pyridine-3-carboxamide] was tested. Which Kd did it give?
Answer: 19.9 nM

Question: For `C[C@@H]1CN(c2cc(F)c(-c3ccc(N4CCOCC4)c(F)c3)cc2NC(=O)c2c[nH]c(=O)cc2C(F)(F)F)C[C@@H](C)N1C` (stereo in doubt) [Example 357, N-[4-fluoro-5-(3-fluoro-4-morpholin-4-ylphenyl)-2-[(3R,5R)-3,4,5-trimethylpiperazin-1-yl]phenyl]-6-oxo-4-(trifluoromethyl)-1H-pyridine-3-carboxamide], which Kd is on record?
Answer: 133 nM

Question: For `C[C@@H]1CN(c2cc(F)c(-c3cnc(N(C)[C@@H]4CCOC4)nc3)cc2NC(=O)c2c[nH]c(=O)cc2C(F)(F)F)CCN1C` (stereo in doubt) [Example 362, N-[4-fluoro-5-[2-[methyl-[(3R)-oxolan-3-yl]amino]pyrimidin-5-yl]-2-[(3R)-3,4-dimethylpiperazin-1-yl]phenyl]-6-oxo-4-(trifluoromethyl)-1H-pyridine-3-carboxamide], which Kd is on record?
Answer: 0.244 nM

Question: How did the Kd turn out when `C[C@@H]1CN(c2cc(F)c(-c3cnc(N(C)C4CCOC4)nc3)cc2NC(=O)c2c[nH]c(=O)cc2C(F)(F)F)C[C@H](C)N1C` (stereo in doubt) [Example 363, N-[4-fluoro-5-[2-[methyl-[(3R)-oxolan-3-yl]amino]pyrimidin-5-yl]-2-[(3S,5R)-3,4,5-trimethylpiperazin-1-yl]phenyl]-6-oxo-4-(trifluoromethyl)-1H-pyridine-3-carboxamide] was run?
Answer: 0.634 nM

Question: Which Kd does the source give for `CC1CN(c2cc(F)c(-c3cnc(N(C)C4CCOCC4)nc3)cc2NC(=O)c2c[nH]c(=O)cc2C(F)(F)F)CCN1C` (stereo in doubt) [Example 370, N-[4-fluoro-5-[2-[methyl(oxan-4-yl)amino]pyrimidin-5-yl]-2-[(3R)-3,4-dimethylpiperazin-1-yl]phenyl]-6-oxo-4-(trifluoromethyl)-1H-pyridine-3-carboxamide] here?
Answer: 0.866 nM

Question: With `C[C@@H]1CN(c2ncc(-c3cc(NC(=O)c4c[nH]c(=O)cc4C(F)(F)F)c(N4CCN(C)[C@H](C)C4)cc3F)cn2)CCO1` (stereo in doubt) [Example 389, N-[4-fluoro-2-[(3R)-3,4-dimethylpiperazin-1-yl]-5-[2-[(2R)-2-methylmorpholin-4-yl]pyrimidin-5-yl]phenyl]-6-oxo-4-(trifluoromethyl)-1H-pyridine-3-carboxamide] as the compound, how does the Kd read?
Answer: 0.522 nM
